# According to BigSolDB 2.1:
smiles,measurement,setting,value
COC(=O)Nc1nc2ccc(Sc3ccccc3)cc2[nH]1,solubility (mole fraction),"in 1,4-dioxane, 288.15 K",0.00107
same,solubility (mole fraction),"in 1,4-dioxane, 293.15 K",0.00124
same,solubility (mole fraction),"in 1,4-dioxane, 298.15 K",0.00148
same,solubility (mole fraction),"in 1,4-dioxane, 303.15 K",0.00169
same,solubility (mole fraction),"in 1,4-dioxane, 308.15 K",0.00195
same,solubility (mole fraction),"in 1,4-dioxane, 313.15 K",0.00222
same,solubility (mole fraction),"in 1,4-dioxane, 318.15 K",0.00256
same,solubility (mole fraction),"in 1,4-dioxane, 323.15 K",0.00289
same,solubility (mole fraction),"in 1,4-dioxane, 328.15 K",0.00326
same,solubility (mole fraction),"in NMP, 283.15 K",0.0348
same,solubility (mole fraction),"in NMP, 288.15 K",0.0389
same,solubility (mole fraction),"in NMP, 293.15 K",0.0435
same,solubility (mole fraction),"in NMP, 298.15 K",0.0485
same,solubility (mole fraction),"in NMP, 303.15 K",0.0537
same,solubility (mole fraction),"in NMP, 308.15 K",0.059
same,solubility (mole fraction),"in NMP, 313.15 K",0.0651
same,solubility (mole fraction),"in NMP, 318.15 K",0.0711
same,solubility (mole fraction),"in NMP, 323.15 K",0.0773
same,solubility (mole fraction),"in NMP, 328.15 K",0.0843
same,solubility (mole fraction),"in acetone, 283.15 K",0.000176
same,solubility (mole fraction),"in acetone, 288.15 K",0.000192
same,solubility (mole fraction),"in acetone, 293.15 K",0.000211
same,solubility (mole fraction),"in acetone, 298.15 K",0.000228
same,solubility (mole fraction),"in acetone, 303.15 K",0.000246
same,solubility (mole fraction),"in acetone, 308.15 K",0.000265
same,solubility (mole fraction),"in acetone, 313.15 K",0.000287
same,solubility (mole fraction),"in acetone, 318.15 K",0.000308
same,solubility (mole fraction),"in acetone, 323.15 K",0.00033
same,solubility (mole fraction),"in acetone, 328.15 K",0.000353
same,solubility (mole fraction),"in water, 283.15 K",3.48e-06
same,solubility (mole fraction),"in water, 288.15 K",4.4e-06
same,solubility (mole fraction),"in water, 293.15 K",5.61e-06
same,solubility (mole fraction),"in water, 298.15 K",7.12e-06
same,solubility (mole fraction),"in water, 303.15 K",9.14e-06
same,solubility (mole fraction),"in water, 308.15 K",1.15e-05
same,solubility (mole fraction),"in water, 313.15 K",1.43e-05
same,solubility (mole fraction),"in water, 318.15 K",1.77e-05
same,solubility (mole fraction),"in water, 323.15 K",2.14e-05
same,solubility (mole fraction),"in water, 328.15 K",2.63e-05
